Results reported in PubChem BioAssay AID2252 (Southern Research Specialized Biocontainment Screening …, 2010).

system: THP-1 viability, CellTiter-Glo luminescence, 72 h; test: PubChem AID 2252

Compound | EC50
COc1ccc(Nc2ccnc3ccccc23)cc1 | 30.7 µM
CCCCCC[N+](C)(C)CC/C=C1/c2ccccc2Sc2ccc(Cl)cc21 | 5.39 µM
O=C1C(SCCO)=C(SCCO)C(=O)c2ccccc21 | 3.62 µM
Fc1ccc(NC(=S)Nc2cc(-c3ccccc3)[nH]n2)cc1Cl | 41.9 µM
COc1ccc(CSCCN)cc1Cl | 44.9 µM
O=C(Oc1c(Cl)cc(Cl)c2cccnc12)c1cccc([N+](=O)[O-])c1 | 14.6 µM
Cc1cc(O)c2c(c1)C(=O)C13C(=C2O)C(=O)[C@H]2[C@@H](O)[C@@H]1[C@H]1[C@H](O)[C@@H]3C(=O)C3=C(O)c4c(O)cc(C)cc4C(=O)C312 (stereo partly specified) | 6.36 µM
Oc1cc(Cl)ccc1Oc1ccc(Cl)cc1Cl | 28.6 µM
Clc1c(OCCCn2ccnc2)ccc2ccccc12 | 41.1 µM
Cc1ccc(-c2c[n+](Cc3ccc(Cl)c(Cl)c3)c3n2CCC3)cc1 | 4.37 µM
O=C(CC(=O)c1ccccc1O)c1cccc(F)c1 | 26.2 µM
CNCC[C@H](Oc1cccc2ccccc12)c1cccs1 | 18.3 µM
O=C(Nc1ccc(Nc2ccncc2)cc1)c1ccc([N+](=O)[O-])cc1 | 11.9 µM
CN1CCN(C2Cc3cc(Cl)ccc3Sc3cc(F)ccc32)CC1 (stereo unspecified) | 8.2 µM
COc1ccc2nc(C)cc(Nc3ccc(N4CCOCC4)cc3)c2c1 | 45.9 µM
CN1CCN(c2ccc(NC(=O)CSc3ccccc3)cc2F)CC1 | < 0.1 µM
Cc1[nH]c2ccccc2c1/C=C/c1nc2ccccc2c(=O)[nH]1 | 14 µM
O=C(c1ccccc1)c1c2c(cc3sc4ccccc4[n+]13)-c1cccc3cccc-2c13 | 1.36 µM
Cc1ccc2nc(N(CCCN(C)C)C(=O)c3ccc4c(c3)CCCC4)sc2c1 | 9.42 µM
C=CCN(c1ccccc1)S(=O)(=O)c1cccc2cccnc12 | 49.4 µM
O=C1c2ccc3c4c(ccc(c24)C(=O)N1c1cccc(O)c1)C(=O)N(c1cccc(O)c1)C3=O | 2.74 µM
O=C(C[n+]1cc(Br)cc2ccccc21)c1ccc(Cl)cc1 | 44 µM
O=S(=O)(Nc1c(S(=O)(=O)c2ccccc2)c2nc3ccccc3nc2n1C1CCCCC1)c1ccccc1 | 12.3 µM
CSc1ccc2c(c1)C(N1CCN(C)CC1)Cc1ccc(F)cc1S2 (stereo unspecified) | 5.63 µM

Compound | EC50
O=c1c2ccccc2nc(N/N=C/c2c(O)ccc3ccccc23)n1O | 0.99 µM
CCOc1cc(Br)cc(/C=N/NC(=O)c2cccnc2)c1O | 7.58 µM
N#C/C(=C\c1ccc(O)c(O)c1)C(=O)c1ccc(O)c(O)c1 | 39.1 µM
CCCCCCCSc1cc(OC)c(CCN(C)C)cc1OC | 9.51 µM
COc1ccc(C(=O)NC(=S)NNC(=O)c2cccnc2)cc1 | 21.4 µM
OC(CNCC1CCCO1)Cn1c2ccc(Cl)cc2c2cc(Cl)ccc21 (stereo unspecified) | 12.9 µM
O=c1ccc2cc3c([nH]c4ccc(Br)cc43)oc-2c1O | 18.9 µM
O=[N+]([O-])c1cc(CN2CCN(c3cccc(C(F)(F)F)c3)CC2)c2cccnc2c1O | 1.74 µM
C=CCNc1ncnc2c1[nH]c1ccc(C)cc12 | 29.5 µM
Cc1[nH]c2ccccc2c1/C=N/Nc1nc2ccccc2[nH]1 | 1.52 µM
c1ccc(Sc2cccc3ccccc23)c(CNC2=NCCN2)c1 | 5.87 µM
CCOC(=O)c1c(C)sc2c1N(C(C)=O)c1cc(Cl)ccc1S2 | 44.1 µM
OC1CCCN(Cc2ccc3ccc4cccc5ccc2c3c45)C1 (stereo unspecified) | 15.2 µM
Cc1ccc(C(C[N+](=O)[O-])c2c(N)n(C)c(=O)n(C)c2=O)cc1 (stereo unspecified) | 26.3 µM
COc1cccc(F)c1C(C[N+](=O)[O-])c1c(N)n(C)c(=O)n(C)c1=O (stereo unspecified) | 6.05 µM
c1ccc2c(c1)OC(CCCN1CCCCC1)c1ccccc1S2 (stereo unspecified) | 21.8 µM
O=C(CN1C2=NCCCN2c2ccccc21)c1ccc(Br)s1 | 41.9 µM
Cc1ccc(-c2c[n+](Cc3ccc(Cl)cc3)c3n2CCC3)cc1 | 10.1 µM
C#CCOCCOCCOCCNc1nc(N2CCN(C(=O)CCCCCCCCCCNC(=O)[C@H]([C@@H](C)CC)n3cc(CCCCN=C(N)N)nn3)CC2)nc(N2CCN(C(=O)CCCCCCCCCCNC(=O)[C@H](CCCCN)n3cc(C)nn3)CC2)n1 | 3.57 µM
CCN1CCN(CCNC(=O)c2ccc(/C=C3/Sc4ccccc4N(Cc4cccc(Cl)c4)C3=O)cc2)CC1 | 8.93 µM
Oc1c(Br)cc(Br)cc1C=Nc1cccc2ncccc12 | 12.9 µM
O=C(N/N=C/c1cc(Cl)ccc1O)c1ccncc1 | 6.13 µM
COc1ccc(/C=C/c2cc(-c3ccc(C)cc3)o[n+]2C)cc1 | 1.27 µM
O=C(N/N=C/c1ccc([N+](=O)[O-])s1)c1ccccc1Br | 15.2 µM

Compound | EC50
O=C1C(=O)c2ccccc2-c2ccccc21 | 2.22 µM
CC(C)(C)Nc1nc(-c2ccccn2)nc2ccccc12 | 3.45 µM
Cc1ccc(O)c(Nc2c3ccccc3nc3ccccc23)c1 | 14.2 µM
O=C(Cc1ccccc1)NNC(=S)NC(=O)c1cccs1 | 17.5 µM
NCCCC[C@H]1CN=C(N)N1CCC12CC3CC(CC(C3)C1)C2 | 49.4 µM
CCCOc1ccc(C(=O)NNC(=S)NC(C)=O)cc1 | 5.29 µM
C[n+]1c2n(c3ccccc31)N=C(c1ccc(-c3ccccc3)cc1)CS2 | 3.89 µM
NC(N)=N/N=C/c1ccc(OCc2ccc(Cl)cc2Cl)cc1 | 5.86 µM
CC[n+]1c(/C=C/C=C/c2ccc(N(C)C)cc2)sc2ccccc21 | 1.43 µM
O=C(Nc1ccc(Cl)cc1)N1CCOC12CCC1(CC2)OCCO1 | < 0.1 µM
COc1ccc(NC(=O)CN(C)S(=O)(=O)c2ccc(Cl)cc2)cc1Cl | < 0.1 µM
OCCNc1nc(Nc2ccc(Br)cc2)nc2ccccc12 | 0.62 µM
CC1CCN(CCOCCOc2ccc(Br)cc2Cl)CC1 | 32.9 µM
Cc1cc(/C=C\c2ccc3cc(N(C)C)ccc3[n+]2C)c(C)n1-c1ccccc1 | 4.95 µM
COC(=O)CC1C(=O)NCCN1C(=O)CSc1nc2ccc([N+](=O)[O-])cc2s1 (stereo unspecified) | < 0.1 µM
CCCOc1ccc(C(=O)NNC(=S)NC(=O)CC)cc1 | 2.81 µM
O=C(/C=C/c1ccccc1)c1ccc(NC2=NCCCS2)cc1 | 27.4 µM
CC(C)(C)c1ccc(OCCCCCCN2CCNCC2)cc1 | 13.8 µM
CC(C)(C)c1ccc(OCCNC(=S)Nc2ccccc2)cc1 | 16 µM
O=C(N/N=C/c1cc([N+](=O)[O-])ccc1O)C(O)(c1ccccc1)c1ccccc1 | 11.8 µM
COC(=O)C1C(O)C(C)C(O)C(C)(O)/C=C\C=C(/C)C(=O)Nc2c(C)c(OC(C)=O)c3c(c2O)C(=O)C(C)=C2OCOC(=C23)/C(C)=C/C(C)(O)C(O)C(C)C1O (stereo unspecified) | < 0.1 µM
Cc1nn(-c2nc3ccccc3[nH]2)c(N)c1-c1ccccc1 | 28.7 µM
Clc1ccc(OCCCNCc2ccccc2)c2ccccc12 | 23.4 µM
NC(N)=Nc1nc(-c2ccccc2)c2cc(Cl)ccc2n1 | 3.77 µM

Compound | EC50
O=[N+]([O-])c1ccc(O)c(/C=N/Nc2ccccn2)c1 | 0.42 µM
O=C(N/N=C/c1cc(O)ccc1Br)c1cccnc1 | 2.86 µM
c1ccc(Nc2nc(NCc3ccco3)c3ccccc3n2)cc1 | 4.95 µM
Cc1nc2ccccc2c(N)c1C(=O)/C=C/c1ccccc1 | 3.11 µM
CC1CCN(c2nc3ccc(C(=O)NCCCN4CCCCC4)cc3s2)CC1 | 30.7 µM
CCCCCCCNC(=O)C1(CC2CC(c3cccc(Br)c3)=NO2)CCNCC1 (stereo unspecified) | 7 µM
Oc1ccc(/C=N/N=C(c2ccccc2)c2ccccc2)c(O)c1O | 7.47 µM
O=C(N/N=C\c1ccc(Cl)s1)c1cccs1 | 32.7 µM
Fc1ccc(CCNCc2ccc(Cl)c(Cl)c2)cc1 | 35.2 µM
Nc1nc(F)nc2c1ncn2[C@@H]1O[C@H](CO)[C@@H](O)[C@H]1O | 0.35 µM
NC1=NC[C@H](CC2CCCCC2)N1CCc1cc(C(F)(F)F)cc(C(F)(F)F)c1 | 6.33 µM
CCN1CCN(Cc2ccc(NC(=O)c3ccc(C)c(NC(=O)c4c[nH]c5cc(C(F)(F)F)ccc5c4=O)c3)cc2C(F)(F)F)CC1 | 2.04 µM
CN(O)/C=c1/ccc2c(n1)C(=O)C=CC=2 | 25.5 µM
CC(C)N1CCc2c(sc(NC(=O)c3ccc(S(=O)(=O)N4CCc5ccccc54)cc3)c2C(N)=O)C1 | 8.45 µM
Nc1c(Cl)ncnc1N/N=C/c1ccccn1 | 0.36 µM
COc1ccc(OCC(=O)Nc2ccc3c(c2)nc(CCN2CCC(C)CC2)n3C)cc1 | 35.1 µM
CC(=O)NC(c1ccc2ccccc2c1)c1ccc2cccnc2c1O (stereo unspecified) | 0.36 µM
O=C(NC(=S)NNC(=O)c1cccs1)c1ccco1 | 16.2 µM
CC(Oc1ccc(Br)cc1)c1nc2c3ccccc3nc(=S)n2[nH]1 (stereo unspecified) | 17.9 µM
CN(C)CCCn1c(SCC(=O)N2c3ccccc3Sc3ccccc32)nc2ccccc2c1=O | 14.2 µM
Cn1c(-c2ccc3c(c2)OCO3)cnc1NCc1ccc(Cl)cc1 | 28.8 µM
Cc1ccc(Nc2cc(C)nn2-c2nc(C)cc(=O)[nH]2)cc1 | 0.65 µM
CC(C)NC(=O)Nc1ccc(Br)cc1Cl | < 0.1 µM
O=C(CCN1CCOCC1)N/N=C/c1cc(Br)cc(Br)c1O | 24.8 µM

Compound | EC50
Cc1cc(=O)oc2ccc(OCC(=O)N3CCC(C)CC3)cc12 | < 0.1 µM
CC(C)(C)c1ccc(OCCCNC2CCCC2)cc1 | 19.9 µM
CCN1CCN(c2cc(C)c3cc(NC(=S)N4CCN(c5ccccc5F)CC4)ccc3n2)CC1 | 17.9 µM
Nc1cccc2nc3ccccc3cc12 | 5.32 µM
c1ccc2c(c1)CCc1ccccc1C2=C1CCNCC1 | 25.2 µM
CCc1ccc(Nc2n[n+](-c3ccccc3)c(-c3c(Cl)cccc3Cl)s2)cc1 | 3.75 µM
Oc1[nH]c2ccccc2c1N=NC(=S)N1CCOCC1 | 2.48 µM
CN(C)CCOCCOc1ccc(Cl)c2ccccc12 | 48.3 µM
O=C(NNC(=S)NC(=O)c1ccccc1)c1ccc(O)cc1 | 14.3 µM
Cc1cccc(Nc2nc(NCc3ccco3)c3ccccc3n2)c1 | 4.43 µM
CC12CN3CC(C)(CN(C1)C3c1ccc(Br)cc1O)C2 (stereo unspecified) | < 0.1 µM
Cc1nnc(N/N=C/c2ccccn2)[nH]c1=O | 1.62 µM
CCN1/C(=C/c2cc[n+](C)cc2)C=Cc2cc(C)ccc21 | 6.78 µM
CC(Nc1nc(N2CCCC2)nc2ccccc12)c1ccccc1 (stereo unspecified) | 9.31 µM
Cc1ccc(N2C(N)=C(C#N)C(c3cccnc3)C3=C2CC(C)(C)CC3=O)cc1 (stereo unspecified) | 32.9 µM
CN1CCN(C(c2ccc(C(F)(F)F)cc2)c2ccc3cccnc3c2O)CC1 (stereo unspecified) | 1.36 µM
CN1CCN(/N=C/c2c3ccccc3c(Cl)c3ccccc23)CC1 | 13.1 µM
Cn1c(=O)c2c(nc(Br)n2CCSc2nc3ccccc3o2)n(C)c1=O | < 0.1 µM
Cn1c(SCC(=O)N/N=C/c2ccc([N+](=O)[O-])s2)nnc1-c1ccc(Cl)cc1 | 7.71 µM
O=C1c2ccccc2NC(c2ccc(-c3ccc(Br)cc3)o2)N1O (stereo unspecified) | 10.6 µM
